Test results as given in patent US11821042B2, “Targeting chromosomal instability and downstream cytosolic DNA signaling for cancer treatment” (Cornell University, priority 2017, dated 2023).

Test system: MDA-MB-231 cells
Assay: In vitro invasion assay through collagen membrane (CytoSelect)
Assay type: cell-based, human
Settings: addition to MCAK (CIN-low) cells
Protocol: For the invasion and migration/chemotaxis assays the CytoSelect cell invasion (CBA-110) and cell migration (CBA-100) kits, respectively, were used. Briefly, 3×10^5 cells were suspended in serum-free media and placed on top of the membrane. […] For the chemotaxis assay, we used a colorimetric approach (OD 560 nm) for quantification. For the scratch assay, cells were treated with mitomycin C (10 μgml^−1) for 1 hour when they reached >90% confluence and then placed in DMEM containing 1% FBS. Wounds were applied using p200 pipette tip and images of the wound were taken immediately and at subsequent regular intervals. ImageJ was used for quantification of wound surface area.

Nc1nc2c(ncn2[C@@H]2O[C@@H]3COP(=O)(O)O[C@H]4[C@@H](O)[C@H](n5cnc6c(N)ncnc65)O[C@@H]4COP(=O)(O)O[C@@H]2[C@@H]3O)c(=O)[nH]1 [cGAMP, cyclic guanosine monophosphate-adenosine monophosphate]
ability to migrate and invade through a collagen membrane: increased
